Converted amounts (≈) assume the structure as drawn.
Key:
[1] = system: H9 (acute lymphoblastic leukemia, ALL); test: Leukemia cell growth inhibition, MTT, 72 h (Example 5); format: cell-based, human; details: for IC50 / IC90: Homo sapiens, 72 h, MTT; for anti-H9 activity increase over tetrandrine: compared with tetrandrine
In short: (§1)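 Seed 6000 leukemia cells per well in 1640 medium containing 10% FBS. Add test compounds at different concentrations, mix, incubate 72 hours at 37° C in 5% CO2. Determine viable cells by MTT.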

[2] = system: Jurkat (acute lymphoblastic leukemia, ALL); test: as above; format: cell-based, human; details: for IC50 / IC90: Homo sapiens, Jurkat, 72 h, MTT
In short: as §1

[3] = system: K562/adr (drug-resistant, chronic myeloid leukemia, CML); test: as above; format: cell-based, human; details: Homo sapiens, K562/Adr; 72 h, MTT
In short: as §1

[4] = system: Kasumi-1 (acute myeloid leukemia M2 type, AML-M2); test: as above; format: cell-based, human; details: Homo sapiens, Kasumi 1
In short: as §1

[5] = system: NB4 (acute promyelocytic leukemia, AML); test: as above; format: cell-based, human; details: for IC50 / IC90: Homo sapiens, 72 h, MTT
In short: as §1

[6] = system: RPMI8226 (multiple myeloma); test: Multiple myeloma cell growth inhibition, MTT, 72 h (Example 6); format: cell-based, human; details: Homo sapiens, RPMI-8226; 72 h, MTT, RPMI8226
In short: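 Viability was read by MTT after 72 h of compound exposure at 37 °C, 5% CO2. Each well held 6000 RPMI8226 cells in 1640 medium containing 10% fetal bovine serum, with derivatives added at various concentrations.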

[7] = system: CaES-17 (esophageal cancer cell); test: Solid tumor cell growth inhibition, MTT, 72 h (Example 7); format: cell-based, human; details: for IC50 / IC90: Homo sapiens, CaEs17, 72 h, MTT, CAES-17
In short: (§2)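 MTT read-out of viable cells after 72 h compound treatment, reported as percent viability versus untreated control (100%). Cells seeded at 4000 per well, grown 24 h beforehand in 10% FBS DMEM high glucose, 37 °C, 5% CO2.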

[8] = system: Hep-2 (laryngeal carcinoma); test: as above; format: cell-based, human; details: for IC50 / IC90: Homo sapiens, 72 h, MTT, Hep 2
In short: as §2

MG63 (osteosarcoma) = test: as above; format: cell-based, human; details: for IC50 / IC90: Homo sapiens, 72 h, MTT, MG-63
In short: as §2

[9] = system: PANC-1 (pancreatic cancer); test: as above; format: cell-based, human; details: Homo sapiens; 72 h, MTT, PANC-1
In short: as §2

PC-3 (prostate cancer) = test: as above; format: cell-based, human; details: Homo sapiens; 72 h, MTT, PC-3
In short: as §2

A549 (human lung cancer) = test: as above; format: cell-based; details: Homo sapiens; 72 h, MTT, A549
In short: as §2

[10] = system: Becap37 (human breast cancer cell); test: as above; format: cell-based; details: for IC50 / IC90: Homo sapiens, 72 h, MTT, Becap-37
In short: as §2

[11] = system: CNE (nasopharyngeal carcinoma cell); test: as above; format: cell-based; details: Homo sapiens
In short: as §2

[12] = system: Hela (human cervical cancer cell); test: as above; format: cell-based; details: for IC50 / IC90: Homo sapiens, 72 h, MTT, Hela
In short: as §2

[13] = system: Huh7 (human liver cancer cell); test: as above; format: cell-based; details: Homo sapiens; 72 h, MTT, Huh-7
In short: as §2

[14] = system: MGC 803 (human gastric cancer cell); test: as above; format: cell-based; details: Homo sapiens
In short: as §2

[15] = system: RKO (human colon adenocarcinoma cell); test: as above; format: cell-based; details: for IC50 / IC90: Homo sapiens, 72 h, MTT, RKO; for anti-RKO activity increase over tetrandrine: compared with tetrandrine
In short: as §2

[16] = system: SK-OV-3 (ovarian cancer cell); test: as above; format: cell-based; details: Homo sapiens
In short: as §2

[17] = system: U87 MG (malignant glioma cell); test: as above; format: cell-based; details: Homo sapiens, U-87 MG
In short: as §2

COc1ccc2cc1Oc1ccc(cc1)C[C@H]1c3cc(c(OC)cc3CCN1C)Oc1c(OC)c(OC)c(CNCc3cccs3)c3c1[C@H](C2)N(C)CC3 [BS-TE-359]
IC50 [1]: 1.25 µg/mL (≈ 1.67 µM) | IC90 [1]: 2.3 µg/mL (≈ 3.08 µM) | IC50 [2]: 0.65 µg/mL (≈ 0.869 µM) | IC90 [2]: 5 µg/mL (≈ 6.68 µM) | IC50 [3]: 0.36 µg/mL (≈ 0.481 µM) | IC90 [3]: 2.18 µg/mL (≈ 2.91 µM) | IC50 [4]: 0.42 µg/mL (≈ 0.562 µM) | IC90 [4]: 1.83 µg/mL (≈ 2.45 µM) | IC50 [5]: 0.4 µg/mL (≈ 0.535 µM) | IC90 [5]: 1 µg/mL (≈ 1.34 µM) | IC50 [6]: 0.05 µg/mL (≈ 0.0668 µM) | IC90 [6]: 1.42 µg/mL (≈ 1.9 µM) | IC50 [7]: 1.61 µg/mL (≈ 2.15 µM) | IC90 [7]: 7.67 µg/mL (≈ 10.3 µM) | IC50 [8]: 4.6 µg/mL (≈ 6.15 µM) | IC90 [8]: 8.29 µg/mL (≈ 11.1 µM) | IC50 (MG63 (osteosarcoma)): 1.1 µg/mL (≈ 1.47 µM) | IC90 (MG63 (osteosarcoma)): 1.98 µg/mL (≈ 2.65 µM) | IC50 [9]: 2.44 µg/mL (≈ 3.26 µM) | IC90 [9]: 8.04 µg/mL (≈ 10.7 µM) | IC50 (PC-3 (prostate cancer)): 3 µg/mL (≈ 4.01 µM) | IC90 (PC-3 (prostate cancer)): 4.7 µg/mL (≈ 6.28 µM) | IC50 (A549 (human lung cancer)): 3.3 µg/mL (≈ 4.41 µM) | IC90 (A549 (human lung cancer)): 12.8 µg/mL (≈ 17.1 µM) | IC50 [10]: 1.1 µg/mL (≈ 1.47 µM) | IC90 [10]: 2 µg/mL (≈ 2.67 µM) | IC50 [11]: 1.57 µg/mL (≈ 2.1 µM) | IC90 [11]: 2.83 µg/mL (≈ 3.78 µM) | IC50 [12]: 1.09 µg/mL (≈ 1.46 µM) | IC90 [12]: 2.56 µg/mL (≈ 3.42 µM) | IC50 [13]: 1.19 µg/mL (≈ 1.59 µM) | IC90 [13]: 1.68 µg/mL (≈ 2.25 µM) | IC50 [14]: 0.88 µg/mL (≈ 1.18 µM) | IC90 [14]: 6 µg/mL (≈ 8.02 µM) | IC50 [15]: 0.58 µg/mL (≈ 0.775 µM) | IC90 [15]: 1.01 µg/mL (≈ 1.35 µM) | IC50 [16]: 2 µg/mL (≈ 2.67 µM) | IC90 [16]: 14.4 µg/mL (≈ 19.3 µM) | IC50 [17]: 0.33 µg/mL (≈ 0.441 µM) | IC90 [17]: 1.01 µg/mL (≈ 1.35 µM)

COc1ccc2cc1Oc1ccc(cc1)C[C@H]1c3cc(c(OC)cc3CCN1C)Oc1c(OC)c(OC)c(CN3CCN(C)CC3)c3c1[C@H](C2)N(C)CC3 [BS-TE-360]
IC50 [1]: 0.22 µg/mL (≈ 0.299 µM) | IC90 [1]: 1.71 µg/mL (≈ 2.33 µM) | anti-H9 activity increase over tetrandrine [1]: ~12 fold | IC50 [2]: 0.5 µg/mL (≈ 0.68 µM) | IC90 [2]: 4.5 µg/mL (≈ 6.12 µM) | anti-Jurkat activity increase over tetrandrine ([2]; compared with tetrandrine): ~4 fold | IC50 [3]: 0.33 µg/mL (≈ 0.449 µM) | IC90 [3]: 2.4 µg/mL (≈ 3.27 µM) | IC50 [4]: 0.41 µg/mL (≈ 0.558 µM) | IC90 [4]: 2.28 µg/mL (≈ 3.1 µM) | IC50 [5]: 0.5 µg/mL (≈ 0.68 µM) | IC90 [5]: 1.4 µg/mL (≈ 1.9 µM) | IC50 [6]: 0.05 µg/mL (≈ 0.068 µM) | IC90 [6]: 1.5 µg/mL (≈ 2.04 µM) | IC50 [7]: 1.75 µg/mL (≈ 2.38 µM) | IC90 [7]: 10.5 µg/mL (≈ 14.2 µM) | IC50 [8]: 2.4 µg/mL (≈ 3.27 µM) | IC90 [8]: 9.39 µg/mL (≈ 12.8 µM) | IC50 (MG63 (osteosarcoma)): 0.8 µg/mL (≈ 1.09 µM) | IC90 (MG63 (osteosarcoma)): 1.9 µg/mL (≈ 2.59 µM) | IC50 [9]: 1.88 µg/mL (≈ 2.56 µM) | IC90 [9]: 9.54 µg/mL (≈ 13 µM) | IC50 (PC-3 (prostate cancer)): 1.85 µg/mL (≈ 2.52 µM) | IC90 (PC-3 (prostate cancer)): 2.5 µg/mL (≈ 3.4 µM) | IC50 (A549 (human lung cancer)): 1.7 µg/mL (≈ 2.31 µM) | IC90 (A549 (human lung cancer)): 9.2 µg/mL (≈ 12.5 µM) | IC50 [10]: 1.2 µg/mL (≈ 1.63 µM) | IC90 [10]: 3.7 µg/mL (≈ 5.03 µM) | IC50 [11]: 0.64 µg/mL (≈ 0.871 µM) | IC90 [11]: 3.55 µg/mL (≈ 4.83 µM) | IC50 [12]: 1.2 µg/mL (≈ 1.63 µM) | IC90 [12]: 6 µg/mL (≈ 8.16 µM) | IC50 [13]: 0.93 µg/mL (≈ 1.27 µM) | IC90 [13]: 2.4 µg/mL (≈ 3.27 µM) | IC50 [14]: 0.8 µg/mL (≈ 1.09 µM) | IC90 [14]: 5.17 µg/mL (≈ 7.03 µM) | IC50 [15]: 0.12 µg/mL (≈ 0.163 µM) | IC90 [15]: 1.02 µg/mL (≈ 1.39 µM) | anti-RKO activity increase over tetrandrine [15]: 22 fold | IC50 [16]: 1.62 µg/mL (≈ 2.2 µM) | IC90 [16]: 3.22 µg/mL (≈ 4.38 µM) | IC50 [17]: 0.33 µg/mL (≈ 0.449 µM) | IC90 [17]: 1.55 µg/mL (≈ 2.11 µM)

COc1ccc2cc1Oc1ccc(cc1)C[C@H]1c3cc(c(OC)cc3CCN1C)Oc1c(OC)c(OC)c(COCCOc3ccccc3)c3c1[C@H](C2)N(C)CC3 [BS-TE-402]
IC50 [1]: 0.25 µg/mL (≈ 0.323 µM) | IC90 [1]: 1.25 µg/mL (≈ 1.62 µM) | anti-H9 activity increase over tetrandrine [1]: ~12 fold | IC50 [2]: 2.34 µg/mL (≈ 3.03 µM) | IC90 [2]: 5.6 µg/mL (≈ 7.25 µM) | IC50 [3]: 0.83 µg/mL (≈ 1.07 µM) | IC90 [3]: 2.55 µg/mL (≈ 3.3 µM) | IC50 [4]: 1.29 µg/mL (≈ 1.67 µM) | IC90 [4]: 4.77 µg/mL (≈ 6.17 µM) | IC50 [5]: 0.2 µg/mL (≈ 0.259 µM) | IC90 [5]: 1.41 µg/mL (≈ 1.82 µM) | anti-NB4 activity increase over tetrandrine ([5]; compared with tetrandrine): ~8 fold | IC50 [6]: 0.25 µg/mL (≈ 0.323 µM) | IC90 [6]: 1.17 µg/mL (≈ 1.51 µM) | IC50 [7]: 0.6 µg/mL (≈ 0.776 µM) | IC90 [7]: 4.9 µg/mL (≈ 6.34 µM) | anti-CaES-17 activity increase over tetrandrine ([7]; compared with tetrandrine): 14 fold | IC50 [8]: 0.58 µg/mL (≈ 0.75 µM) | IC90 [8]: 3.58 µg/mL (≈ 4.63 µM) | anti-Hep-2 activity increase over tetrandrine ([8]; compared with tetrandrine): 7 fold | IC50 (MG63 (osteosarcoma)): 0.07 µg/mL (≈ 0.0906 µM) | IC90 (MG63 (osteosarcoma)): 1.11 µg/mL (≈ 1.44 µM) | anti-MG63 activity increase over tetrandrine (MG63 (osteosarcoma); compared with tetrandrine): 27 fold | IC50 [9]: 1.34 µg/mL (≈ 1.73 µM) | IC90 [9]: 4.04 µg/mL (≈ 5.23 µM) | IC50 (PC-3 (prostate cancer)): 2.05 µg/mL (≈ 2.65 µM) | IC90 (PC-3 (prostate cancer)): 4.71 µg/mL (≈ 6.09 µM) | IC50 (A549 (human lung cancer)): 1.35 µg/mL (≈ 1.75 µM) | IC90 (A549 (human lung cancer)): 4.79 µg/mL (≈ 6.2 µM) | IC50 [10]: 0.52 µg/mL (≈ 0.673 µM) | IC90 [10]: 2.15 µg/mL (≈ 2.78 µM) | anti-Becap37 activity increase over tetrandrine ([10]; compared with tetrandrine): 13 fold | IC50 [11]: 1.03 µg/mL (≈ 1.33 µM) | IC90 [11]: 2.49 µg/mL (≈ 3.22 µM) | IC50 [12]: 0.45 µg/mL (≈ 0.582 µM) | IC90 [12]: 2.29 µg/mL (≈ 2.96 µM) | anti-Hela activity increase over tetrandrine ([12]; compared with tetrandrine): 9 fold | IC50 [13]: 1.09 µg/mL (≈ 1.41 µM) | IC90 [13]: 4.97 µg/mL (≈ 6.43 µM) | IC50 [14]: 1.5 µg/mL (≈ 1.94 µM) | IC90 [14]: 3.62 µg/mL (≈ 4.68 µM) | IC50 [15]: 0.17 µg/mL (≈ 0.22 µM) | IC90 [15]: 0.6 µg/mL (≈ 0.776 µM) | anti-RKO activity increase over tetrandrine [15]: 16 fold | IC50 [16]: 1.37 µg/mL (≈ 1.77 µM) | IC90 [16]: 3.89 µg/mL (≈ 5.03 µM) | IC50 [17]: 0.55 µg/mL (≈ 0.712 µM) | IC90 [17]: 1.78 µg/mL (≈ 2.3 µM)

Reference: patent publication US9133207B2, “Tetrandrine derivatives with substituted 5-carbon, preparation method and use thereof” (Hangzhou Bensheng Pharmaceutical Co., Ltd., priority 2011, dated 2015)
